The results in this text go back to US4743541A, “Luminescent substrate preparation and its use in specific binding assays” (priority 1985, dated 1988).

For this assay, the target named is T1, horseradish peroxidase (HRP) (Armoracia rusticana, UniProt P00433).
T1 sequence (P00433 31-353): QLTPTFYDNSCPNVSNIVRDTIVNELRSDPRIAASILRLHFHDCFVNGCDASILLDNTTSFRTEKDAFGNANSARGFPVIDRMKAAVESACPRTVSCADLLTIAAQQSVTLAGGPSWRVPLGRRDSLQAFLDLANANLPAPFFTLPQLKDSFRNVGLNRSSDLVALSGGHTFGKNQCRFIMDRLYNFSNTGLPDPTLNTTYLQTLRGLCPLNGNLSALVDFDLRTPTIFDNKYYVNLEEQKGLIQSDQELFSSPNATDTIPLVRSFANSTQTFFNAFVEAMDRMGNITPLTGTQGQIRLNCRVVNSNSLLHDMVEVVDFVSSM
The protocol: A standardized test procedure for measuring luminol light output has been established. To 0.5 ml of 50 mM borate buffer, pH 9.4, are added 0.5 ml of 40 mM luminol in 45 mM NaOH, pH 11.0; 0.5 ml of 4 mM hydrogen peroxide in 0.01M phosphate buffered saline (PBS), pH 7.0; 0.4 ml of deionized water; and 0.1 ml of 200 mU/ml horseradish peroxidase (HRP) to yield a final 2.0 ml volume containing; 10 mM luminol; 1 mM H2 O2; 12.5 mM borate buffer, pH 9.4; and 20 mU HRP in an aqueous solution having a final pH of 9.4. The enzyme HRP is added last, the solution mixed and relative intensity readings taken on an Ames Fluorocolorimeter (Miles Labs, Inc., Elkhart, IN) at various time points from 1 minute to 2 hours.
The chemical synthesis of luminol and other luminescent substrates use chemicals which can inhibit the catalysts used in luminescent reactions. Two of these inhibitory chemicals known to be used in luminol synthesis were added back to a luminescent reaction using the luminol prepared in Example 1 above.

Where two headings read alike, the source gives them in different places.

Regarding `N.N.O=S(=O)(O)O` [Ammonium Sulfate, ammonium sulfate], the “Effect on luminescence yield in the reaction” value (shortened to “Effect on luminescence yield”) is “had no effect”. For the same compound, the “% Reaction” value (hrp luminol luminescence, pH 9.4, 30 min) is on record as 100%.

As for `NN.O=S(=O)(O)O` [Hydrazine Sulfate, hydrazine sulfate], the “Amount in the luminol that can inhibit the production of light” value is given as “greater than 100 ppm”. For the same compound, where the note is “in words”, the “Effect on luminescence yield” value is listed as “drastically inhibits”.

As to ammonium sulfide, the “Amount in the luminol that can inhibit the production of light” value is reported as “greater than 100 ppm”. For the same compound, the “Effect on luminescence yield” value (in words) is “drastically inhibits”.
